Test results reported in patent US20260265238A1, “COMPOUNDS AND PHARMACEUTICAL COMPOSITIONS THAT DEGRADE SWI/SNF-RELATED MATRIX-ASSOCIATED ACTIN-DEPENDENT REGULATOR OF CHROMATIN SUBFAMILY A” (Plexium, Inc., priority 2023, published 2026).

Key:
[1] = target: T1, SMARCA4-HiBiT HeLa cells (protein which is expressed from the SMARCA4 gene) (Homo sapiens, UniProt P51532); assay: SMARCA4 degradation assay (HiBiT-fusion HeLa cell line, 24 h, luminescence); assay type: cell-based
T1 construct: protein which is expressed from the SMARCA2 and SMARCA4 genes; host or cells: HeLa (SMARCA4-HiBiT engineered line)
T1 sequence (P51532 whole entry, the tested form may be a part): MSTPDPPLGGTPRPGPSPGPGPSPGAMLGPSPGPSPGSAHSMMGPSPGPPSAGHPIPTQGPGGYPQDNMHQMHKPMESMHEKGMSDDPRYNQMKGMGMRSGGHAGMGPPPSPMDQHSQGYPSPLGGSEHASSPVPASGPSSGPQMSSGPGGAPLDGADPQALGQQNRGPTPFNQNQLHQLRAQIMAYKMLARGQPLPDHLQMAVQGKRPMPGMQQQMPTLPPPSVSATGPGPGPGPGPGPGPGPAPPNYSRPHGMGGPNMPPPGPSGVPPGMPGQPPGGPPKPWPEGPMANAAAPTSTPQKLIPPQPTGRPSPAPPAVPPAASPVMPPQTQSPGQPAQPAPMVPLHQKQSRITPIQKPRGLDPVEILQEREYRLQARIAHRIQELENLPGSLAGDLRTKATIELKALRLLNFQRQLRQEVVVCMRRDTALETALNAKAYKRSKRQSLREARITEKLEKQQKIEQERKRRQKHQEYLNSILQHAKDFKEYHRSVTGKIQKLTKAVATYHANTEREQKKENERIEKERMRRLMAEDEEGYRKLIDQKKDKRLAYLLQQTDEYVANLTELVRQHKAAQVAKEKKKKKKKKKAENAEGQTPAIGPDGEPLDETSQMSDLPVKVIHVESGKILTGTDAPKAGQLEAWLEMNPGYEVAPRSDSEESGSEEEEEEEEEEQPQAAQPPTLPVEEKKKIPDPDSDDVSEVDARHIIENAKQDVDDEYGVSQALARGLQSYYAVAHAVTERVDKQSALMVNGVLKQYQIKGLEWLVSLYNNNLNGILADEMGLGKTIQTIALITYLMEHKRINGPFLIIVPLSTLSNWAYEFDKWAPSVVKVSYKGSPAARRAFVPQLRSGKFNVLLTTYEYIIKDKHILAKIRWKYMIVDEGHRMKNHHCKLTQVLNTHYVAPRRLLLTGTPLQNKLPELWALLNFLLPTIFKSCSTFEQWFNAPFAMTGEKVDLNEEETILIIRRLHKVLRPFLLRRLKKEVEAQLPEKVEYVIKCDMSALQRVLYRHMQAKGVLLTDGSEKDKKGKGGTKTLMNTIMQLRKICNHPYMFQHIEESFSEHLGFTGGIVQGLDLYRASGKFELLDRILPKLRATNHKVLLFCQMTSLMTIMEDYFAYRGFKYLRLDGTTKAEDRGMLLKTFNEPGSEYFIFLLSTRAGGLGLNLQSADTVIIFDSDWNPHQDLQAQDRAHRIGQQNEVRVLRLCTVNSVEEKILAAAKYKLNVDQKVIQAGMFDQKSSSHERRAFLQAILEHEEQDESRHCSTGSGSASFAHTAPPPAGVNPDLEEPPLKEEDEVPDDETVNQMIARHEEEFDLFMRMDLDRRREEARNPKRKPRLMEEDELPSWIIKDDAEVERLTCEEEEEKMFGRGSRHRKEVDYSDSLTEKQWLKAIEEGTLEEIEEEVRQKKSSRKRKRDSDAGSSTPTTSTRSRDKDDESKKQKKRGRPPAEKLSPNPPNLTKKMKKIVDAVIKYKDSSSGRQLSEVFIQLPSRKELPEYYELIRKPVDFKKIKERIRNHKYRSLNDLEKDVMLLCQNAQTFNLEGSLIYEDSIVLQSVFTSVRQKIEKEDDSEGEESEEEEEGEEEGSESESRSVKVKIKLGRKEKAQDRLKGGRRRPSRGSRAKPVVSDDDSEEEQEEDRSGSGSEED
In short: (§1)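 HiBiT-fusion HeLa lines, 8,000 cells/well, overnight attachment; cpd 10-pt series (typically 10 μM–300 pM), 24 h, 37° C. Lysis with LgBiT + HiBiT substrate, 10 min shaking at RT, luminescence read. DC50 from dose-response fit; % degradation also scored at 1 μM.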

[2] = target: T2, SMARCA2-HiBiT HeLa cells (protein which is expressed from the SMARCA2 gene) (Homo sapiens, UniProt P51531); assay: SMARCA2 degradation assay (HiBiT-fusion HeLa cell line, 24 h, luminescence); assay type: cell-based
T2 construct: protein which is expressed from the SMARCA2 and SMARCA4 genes; host or cells: HeLa (SMARCA2-HiBiT engineered line)
T2 sequence (P51531 whole entry, the tested form may be a part): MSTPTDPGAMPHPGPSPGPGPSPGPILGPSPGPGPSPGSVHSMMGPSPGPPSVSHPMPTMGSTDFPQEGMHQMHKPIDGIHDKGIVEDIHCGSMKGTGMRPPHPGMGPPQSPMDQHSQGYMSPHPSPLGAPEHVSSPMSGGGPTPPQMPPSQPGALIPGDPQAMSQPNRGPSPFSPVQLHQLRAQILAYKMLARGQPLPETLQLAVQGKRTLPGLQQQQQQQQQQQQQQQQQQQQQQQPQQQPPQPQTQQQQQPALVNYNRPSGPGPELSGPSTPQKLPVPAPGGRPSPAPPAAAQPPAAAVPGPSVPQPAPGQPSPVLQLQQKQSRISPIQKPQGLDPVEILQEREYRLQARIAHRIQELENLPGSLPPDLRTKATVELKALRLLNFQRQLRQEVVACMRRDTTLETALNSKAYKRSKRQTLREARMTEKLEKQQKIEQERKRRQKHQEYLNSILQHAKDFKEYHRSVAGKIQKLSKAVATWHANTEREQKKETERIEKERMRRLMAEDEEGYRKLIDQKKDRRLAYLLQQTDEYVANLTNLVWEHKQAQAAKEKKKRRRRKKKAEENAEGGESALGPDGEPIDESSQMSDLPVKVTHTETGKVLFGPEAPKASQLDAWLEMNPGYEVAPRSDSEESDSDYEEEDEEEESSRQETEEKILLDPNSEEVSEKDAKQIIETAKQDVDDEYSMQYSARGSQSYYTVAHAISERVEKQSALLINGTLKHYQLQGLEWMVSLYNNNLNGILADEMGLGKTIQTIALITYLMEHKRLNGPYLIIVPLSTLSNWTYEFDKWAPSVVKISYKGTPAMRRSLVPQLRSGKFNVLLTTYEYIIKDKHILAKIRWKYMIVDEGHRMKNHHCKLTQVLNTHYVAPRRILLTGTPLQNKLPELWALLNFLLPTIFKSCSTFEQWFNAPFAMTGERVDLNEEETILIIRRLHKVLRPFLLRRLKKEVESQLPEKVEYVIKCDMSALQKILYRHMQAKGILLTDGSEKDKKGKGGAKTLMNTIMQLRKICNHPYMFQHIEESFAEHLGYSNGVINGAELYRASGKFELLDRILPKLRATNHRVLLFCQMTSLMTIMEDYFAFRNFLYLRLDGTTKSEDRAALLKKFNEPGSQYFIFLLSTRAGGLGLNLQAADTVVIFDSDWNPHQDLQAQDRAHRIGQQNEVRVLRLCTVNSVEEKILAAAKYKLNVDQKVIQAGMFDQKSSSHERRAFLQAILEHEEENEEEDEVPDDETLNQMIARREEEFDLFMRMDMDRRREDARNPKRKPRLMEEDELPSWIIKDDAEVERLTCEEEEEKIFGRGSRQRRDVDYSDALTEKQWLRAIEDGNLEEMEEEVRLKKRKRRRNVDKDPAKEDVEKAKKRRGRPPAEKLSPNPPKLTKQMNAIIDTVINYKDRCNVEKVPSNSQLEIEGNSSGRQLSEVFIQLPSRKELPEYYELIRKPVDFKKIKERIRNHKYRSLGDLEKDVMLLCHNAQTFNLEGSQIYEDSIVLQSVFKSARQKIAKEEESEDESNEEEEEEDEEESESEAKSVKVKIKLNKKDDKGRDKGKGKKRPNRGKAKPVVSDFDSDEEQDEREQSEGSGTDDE
In short: as §1

C[C@@H]1CCN(c2cc(-c3ccccc3O)nnc2N)CCN1c1ccc(C#N)c(C#CCN2CC(F)(F)C2)n1 [Compound P-412, 6-{(R)-4-[3-amino-6-(0-hydroxyphenyl)-4-pyridazinyl]-7-methyl-1,4-diazepan-1-yl}-2-[3-(3,3-difluoro-1-azetidinyl)-1-propynyl]nicotinonitrile]
DC50 [1]: 50 to 500 nM
inhibition at 1 µM ([1]; 1 μM): < 30%
DC50 [2]: 50 to 500 nM
SMARCA2 % Degradation @ 1 μM ([2]; 1 μM): ++ (++=30-70%)

CNc1cc(N2CCCN(c3cc(-c4ccccc4O)nnc3N)CC2)nc(C#CCNC(=O)c2nn(C)c(C)c2C)n1 [Compound P-141, N-(3-(4-(4-(3-amino-6-(2-hydroxyphenyl)pyridazin-4-yl)-1,4-diazepan-1-yl)-6-(methylamino)pyrimidin-2-yl)prop-2-yn-1-yl)-1,4,5-trimethyl-1H-pyrazole-3-carboxamide]
DC50 [1]: 500 to 5000 nM
inhibition at 1 µM ([1]; @ 1 μM): 30 to 70%
DC50 [2]: 500 to 5000 nM
SMARCA2 % Degradation @ 1 μM ([2]; @ 1 μM): ??

Nc1nnc(-c2ccccc2O)cc1N1CC2CN(c3ccnc(C#CCNC(=O)c4cc5ncccn5n4)n3)CC21 (stereo not drawn) [Compound P-45, N-(3-(4-(6-(3-amino-6-(2-hydroxyphenyl)pyridazin-4-yl)-3,6-diazabicyclo[3.2.0]heptan-3-yl)pyrimidin-2-yl)prop-2-yn-1-yl)pyrazolo[1,5-a]pyrimidine-2-carboxamide]
DC50 [1]: 500 to 5000 nM
inhibition at 1 µM ([1]; @ 1 μM): < 30%
DC50 [2]: 500 to 5000 nM
SMARCA2 % Degradation @ 1 μM ([2]; @ 1 μM): + (+=<30%)

C[C@@H]1CCN(c2cc(-c3ccccc3O)nnc2N)CCN1c1cc(C#CCN(C)C)ncc1Cl [Compound P-409, 0-{5-[(R)-4-{5-chloro-2-[3-(dimethylamino)-1-propynyl]-4-pyridyl}-5-methyl-1,4-diazepan-1-yl]-6-amino-3-pyridazinyl}phenol]
DC50 [1]: 50 to 500 nM
DC50 [2]: 50 to 500 nM
SMARCA2 % Degradation @ 1 μM ([2]; 1 μM): + (+=<30%)

Nc1nnc(-c2ccccc2O)cc1N1CC2CN(c3ccnc(C#CCNC(=O)c4cc5ncccn5n4)n3)CC2C1 (stereo not drawn) [Compound P-41, N-(3-(4-(5-(3-amino-6-(2-hydroxyphenyl)pyridazin-4-yl)hexahydropyrrolo[3,4-c]pyrrol-2(1H)-yl)pyrimidin-2-yl)prop-2-yn-1-yl)pyrazolo[1,5-a]pyrimidine-2-carboxamide]
DC50 [1]: 50 to 500 nM
inhibition at 1 µM ([1]; @ 1 μM): 30 to 70%
DC50 [2]: 50 to 500 nM
SMARCA2 % Degradation @ 1 μM ([2]; @ 1 μM): ++ (++=30-70%)

C[C@@H]1CCN(c2cc(-c3ccccc3O)nnc2N)CCN1c1ccnc(C#CCN2CCOCC2)c1 [Compound P-426, 0-(5-{(R)-5-methyl-4-[2-(3-morpholino-1-propynyl)-4-pyridyl]-1,4-diazepan-1-yl}-6-amino-3-pyridazinyl)phenol]
DC50 [1]: 50 to 500 nM
inhibition at 1 µM ([1]; 1 μM): 30 to 70%
DC50 [2]: 50 to 500 nM
SMARCA2 % Degradation @ 1 μM ([2]; 1 μM): ++ (++=30-70%)

Cc1cc(C(=O)NCC#Cc2nccc(N3CCN(c4cc(-c5ccccc5O)nnc4N)CC3)n2)nn1C [Compound P-12, N-(3-(4-(4-(3-amino-6-(2-hydroxyphenyl)pyridazin-4-yl)piperazin-1-yl)pyrimidin-2-yl)prop-2-yn-1-yl)-1,5-dimethyl-1H-pyrazole-3-carboxamide]
DC50 [1]: 50 to 500 nM
inhibition at 1 µM ([1]; @ 1 μM): 30 to 70%
DC50 [2]: 50 to 500 nM
SMARCA2 % Degradation @ 1 μM ([2]; @ 1 μM): ++ (++=30-70%)

CC1(F)CCN(CC#Cc2nccc(N3C4CCC3CN(c3cc(-c5ccccc5O)nnc3N)C4)n2)C1 (stereo not drawn) [Compound P-194, o-[6-amino-5-(8-{2-[3-(3-fluoro-3-methyl-1-pyrrolidinyl)-1-propynyl]-4-pyrimidinyl}-3,8-diazabicyclo[3.2.1]oct-3-yl)-3-pyridazinyl]phenol]
DC50 [1]: < 50 nM
inhibition at 1 µM ([1]; @ 1 μM): 30 to 70%
DC50 [2]: < 50 nM
SMARCA2 % Degradation @ 1 μM ([2]; @ 1 μM): ++ (++=30-70%)

C[C@@H]1CCN(c2cc(-c3ccccc3O)nnc2N)CCN1c1ccnc(C#CCN2C[C@@H]3C[C@H]2CO3)c1 [Compound P-404, 0-{5-[(R)-4-[2-(3-{(1S,4S)-2-oxa-5-azabicyclo[2.2.1]hept-5-yl}-1-propynyl)-4-pyridyl]-5-methyl-1,4-diazepan-1-yl]-6-amino-3-pyridazinyl}phenol]
DC50 [1]: 50 to 500 nM
inhibition at 1 µM ([1]; 1 μM): 30 to 70%
DC50 [2]: 50 to 500 nM
SMARCA2 % Degradation @ 1 μM ([2]; 1 μM): ++ (++=30-70%)

Nc1nnc(-c2ccccc2O)cc1N1CCN(c2ccnc(C#CCNC(=O)c3cc4ncccn4n3)n2)C2CC21 (stereo not drawn) [Compound P-28, N-(3-(4-(5-(3-amino-6-(2-hydroxyphenyl)pyridazin-4-yl)-2,5-diazabicyclo[4.1.0]heptan-2-yl)pyrimidin-2-yl)prop-2-yn-1-yl)pyrazolo[1,5-a]pyrimidine-2-carboxamide]
DC50 [1]: < 50 nM
inhibition at 1 µM ([1]; @ 1 μM): 30 to 70%
DC50 [2]: 50 to 500 nM
SMARCA2 % Degradation @ 1 μM ([2]; @ 1 μM): ++ (++=30-70%)

C[C@@H]1CCN(c2cc(-c3ccccc3O)nnc2N)CCN1c1ccnc(C#CCN2CCC3(CC2)COC3)n1 [Compound P-199, o-{5-[(R)-5-methyl-4-(2-{3-(2-oxa-7-aza-7-spiro[3.5]nonyl)-1-propynyl}-4-pyrimidinyl)-1,4-diazepan-1-y1]-6-amino-3-pyridazinyl}phenol]
DC50 [1]: 50 to 500 nM
inhibition at 1 µM ([1]; @ 1 μM): 30 to 70%
DC50 [2]: 50 to 500 nM
SMARCA2 % Degradation @ 1 μM ([2]; @ 1 μM): +++ (+++=>70%)

CC1CN(c2ccnc(C#CCN)n2)CCN(c2cc(-c3ccccc3O)nnc2N)C1 (stereo not drawn) [Compound P-39, 2-(6-amino-5-(4-(2-(3-aminoprop-1-yn-1-yl)pyrimidin-4-yl)-6-methyl-1,4-diazepan-1-yl)pyridazin-3-yl)phenol]
DC50 [1]: 500 to 5000 nM
inhibition at 1 µM ([1]; @ 1 μM): < 30%
DC50 [2]: 500 to 5000 nM
SMARCA2 % Degradation @ 1 μM ([2]; @ 1 μM): + (+=<30%)

Cn1cnc(C(=O)NCC#Cc2nccc(N3CCN(c4cc(-c5ccccc5O)nnc4N)CC3)n2)c1 [Compound P-67, N-(3-(4-(4-(3-amino-6-(2-hydroxyphenyl)pyridazin-4-yl)piperazin-1-yl)pyrimidin-2-yl)prop-2-yn-1-yl)-1-methyl-1H-imidazole-4-carboxamide]
DC50 [1]: 50 to 500 nM
inhibition at 1 µM ([1]; @ 1 μM): < 30%
DC50 [2]: 50 to 500 nM
SMARCA2 % Degradation @ 1 μM ([2]; @ 1 μM): + (+=<30%)

CC1CN(c2ccnc(C#CCN)n2)CCCN1c1cc(-c2ccccc2O)nnc1N (stereo not drawn) [Compound P-40, 2-(6-amino-5-(4-(2-(3-aminoprop-1-yn-1-yl)pyrimidin-4-yl)-2-methyl-1,4-diazepan-1-yl)pyridazin-3-yl)phenol]
DC50 [1]: 500 to 5000 nM
inhibition at 1 µM ([1]; @ 1 μM): < 30%
DC50 [2]: 500 to 5000 nM
SMARCA2 % Degradation @ 1 μM ([2]; @ 1 μM): + (+=<30%)

CC(C)(C)OC(=O)N1Cc2cn(CC#Cc3nccc(N4CCCN(c5cc(-c6ccccc6O)nnc5N)CC4)n3)nc2C1 [Compound P-105, tert-butyl 2-(3-(4-(4-(3-amino-6-(2-hydroxyphenyl)pyridazin-4-yl)-1,4-diazepan-1-yl)pyrimidin-2-yl)prop-2-yn-1-yl)-2,6-dihydropyrrolo[3,4-c]pyrazole-5(4H)-carboxylate]
DC50 [1]: < 50 nM
inhibition at 1 µM ([1]; @ 1 μM): > 70%
DC50 [2]: 50 to 500 nM
SMARCA2 % Degradation @ 1 μM ([2]; @ 1 μM): +++ (+++=>70%)

Nc1nnc(-c2ccccc2O)cc1N1CCN(c2ccnc(C#CCN3CCCCC3)n2)CC1 [Compound P-280, 0-(6-amino-5-{4-[2-(3-piperidino-1-propynyl)-4-pyrimidinyl]-1-piperazinyl}-3-pyridazinyl)phenol]
DC50 [1]: < 50 nM
inhibition at 1 µM ([1]; @ 1 μM): < 30%
DC50 [2]: < 50 nM
SMARCA2 % Degradation @ 1 μM ([2]; @ 1 μM): ++ (++=30-70%)
